Laboratory results taken from PubChem BioAssay AID248 (DTP/NCI, 2004).
Values joined by “and” are separate entries in the source; they are usually repeats but may differ in a detail not shown here. Identical values can stand only once. Inconclusive results and toxic doses are left out. Rule as the data show it: active = T/C of 150% or more; inactive = T/C below 125%.

System: L1210 leukemia ip in BDF1 mice, survival T/C
Test: NCI In Vivo Anticancer Drug Screen. Data for tumor model L1210 Leukemia (intraperitoneal) in B6D2F1 (BDF1) mice
Details: endpoint: mean survival time, higher = longer survival
In short: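 In this screen, tumor-bearing mice given compound are compared to those given vehicle, and their survival values are reported as a treated-to-control quotient.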

[1] = dose: 25.0 mg/kg/injection, schedule: Q01DX009 (ip), vehicle: Klucel (hydroxypropylcellulose) (HPC)
[2] = dose: 100.0 mg/kg/injection, schedule: Q01DX009 (ip), vehicle: saline
[3] = dose: 200.0 mg/kg/injection, schedule: Q01DX009 (ip), vehicle: saline
[4] = dose: 100.0 mg/kg/injection, schedule: Q04DX003 (ip), vehicle: Klucel (hydroxypropylcellulose) (HPC)
[5] = dose: 200.0 mg/kg/injection, schedule: Q04DX003 (ip), vehicle: Klucel (hydroxypropylcellulose) (HPC)
[6] = dose: 400.0 mg/kg/injection, schedule: Q04DX003 (ip), vehicle: Klucel (hydroxypropylcellulose) (HPC)
[7] = dose: 100.0 mg/kg/injection, schedule: Q04DX003 (ip), vehicle: saline
[8] = dose: 200.0 mg/kg/injection, schedule: Q04DX003 (ip), vehicle: saline
[9] = dose: 400.0 mg/kg/injection, schedule: Q04DX003 (ip), vehicle: saline
[10] = dose: 100.0 mg/kg/injection, schedule: Q04DX003 (ip), vehicle: saline with Tween-80
[11] = dose: 200.0 mg/kg/injection, schedule: Q04DX003 (ip), vehicle: saline with Tween-80
[12] = dose: 400.0 mg/kg/injection, schedule: Q04DX003 (ip), vehicle: saline with Tween-80
[13] = dose: 25.0 mg/kg/injection, schedule: Q04DX002 (ip), vehicle: Klucel (hydroxypropylcellulose) (HPC)
[14] = dose: 50.0 mg/kg/injection, schedule: Q04DX002 (ip), vehicle: Klucel (hydroxypropylcellulose) (HPC)
[15] = dose: 100.0 mg/kg/injection, schedule: Q04DX002 (ip), vehicle: Klucel (hydroxypropylcellulose) (HPC)
[16] = dose: 100.0 mg/kg/injection, schedule: Q01DX009 (ip), vehicle: Klucel (hydroxypropylcellulose) (HPC)
[17] = dose: 200.0 mg/kg/injection, schedule: Q01DX009 (ip), vehicle: Klucel (hydroxypropylcellulose) (HPC)
[18] = dose: 400.0 mg/kg/injection, schedule: Q01DX009 (ip), vehicle: Klucel (hydroxypropylcellulose) (HPC)
[19] = dose: 100.0 mg/kg/injection, schedule: Q01DX001 (ip), vehicle: saline
[20] = dose: 200.0 mg/kg/injection, schedule: Q01DX001 (ip), vehicle: saline
[21] = dose: 400.0 mg/kg/injection, schedule: Q01DX001 (ip), vehicle: saline
[22] = dose: 100.0 mg/kg/injection, schedule: Q01DX001 (ip), vehicle: Klucel (hydroxypropylcellulose) (HPC)
[23] = dose: 200.0 mg/kg/injection, schedule: Q01DX001 (ip), vehicle: Klucel (hydroxypropylcellulose) (HPC)
[24] = dose: 400.0 mg/kg/injection, schedule: Q01DX001 (ip), vehicle: Klucel (hydroxypropylcellulose) (HPC)

Measured: T/C

[Cl][Rh][Cl].c1cn[nH]c1.c1cn[nH]c1.c1cn[nH]c1.c1cn[nH]c1
inactive: dose: 12.5 mg/kg/injection, schedule: Q01DX009 (ip), vehicle: Klucel (hydroxypropylcellulose) (HPC) 98 % of control | dose: 12.5 mg/kg/injection, schedule: Q04DX003 (ip), vehicle: Klucel (hydroxypropylcellulose) (HPC) 90 % of control | [1] 89 % of control | dose: 25.0 mg/kg/injection, schedule: Q04DX003 (ip), vehicle: Klucel (hydroxypropylcellulose) (HPC) 95 % of control | dose: 50.0 mg/kg/injection, schedule: Q04DX003 (ip), vehicle: Klucel (hydroxypropylcellulose) (HPC) 102 % of control

NC(=S=O)c1ccccc1
inactive: dose: 50.0 mg/kg/injection, schedule: Q01DX009 (ip), vehicle: saline with Tween-80 93 % of control | dose: 50.0 mg/kg/injection, schedule: Q01DX009 (ip), vehicle: saline 101 % of control | dose: 100.0 mg/kg/injection, schedule: Q01DX009 (ip), vehicle: saline with Tween-80 97 % of control | [2] 96 % of control | dose: 200.0 mg/kg/injection, schedule: Q01DX009 (ip), vehicle: saline with Tween-80 93 % of control | [3] 104 % of control

Cc1cc(=O)n(Cc2ccccc2)c(=O)[nH]1
inactive: [4] 98 % of control | [5] 98 % of control | [6] 93 % of control

CC(=O)/C=C/c1ccco1
inactive: dose: 12.5 mg/kg/injection, schedule: Q01DX009 (ip), vehicle: DMSO 101 % of control | dose: 25.0 mg/kg/injection, schedule: Q01DX009 (ip), vehicle: DMSO 97 % of control | dose: 25.0 mg/kg/injection, schedule: Q04DX003 (ip), vehicle: DMSO 96 % of control | dose: 50.0 mg/kg/injection, schedule: Q01DX009 (ip), vehicle: DMSO 92 % of control | dose: 50.0 mg/kg/injection, schedule: Q04DX003 (ip), vehicle: DMSO 108 % of control | dose: 100.0 mg/kg/injection, schedule: Q04DX003 (ip), vehicle: DMSO 98 % of control

Cc1c2ccncc2cc2c3ccccc3n(CCO)c12
inactive: dose: 9.38 mg/kg/injection, schedule: Q01DX009 (ip), vehicle: Klucel (hydroxypropylcellulose) (HPC) 105 % of control | dose: 18.75 mg/kg/injection, schedule: Q01DX009 (ip), vehicle: Klucel (hydroxypropylcellulose) (HPC) 107 % of control | dose: 18.75 mg/kg/injection, schedule: Q04DX003 (ip), vehicle: Klucel (hydroxypropylcellulose) (HPC) 97 % of control | dose: 37.5 mg/kg/injection, schedule: Q01DX009 (ip), vehicle: Klucel (hydroxypropylcellulose) (HPC) 107 % of control | dose: 37.5 mg/kg/injection, schedule: Q04DX003 (ip), vehicle: Klucel (hydroxypropylcellulose) (HPC) 107 % of control | dose: 75.0 mg/kg/injection, schedule: Q04DX003 (ip), vehicle: Klucel (hydroxypropylcellulose) (HPC) 105 % of control | [5] 98 % of control | [6] 104 % of control

CC(=O)Nc1c(O)c(Cl)c(Cl)c(Cl)c1Cl
inactive: [7] 105 % of control | [8] 101 % of control | [9] 94 % of control

O=C1CCCc2ccc(Br)cc21
inactive: [10] 99 % of control | [11] 96 % of control | [12] 99 % of control

CN(C)C(=S)SSSC(=S)N(C)C
inactive: [13] 101 % of control | [14] 94 % of control | [15] 93 % of control and 105 % of control

N#CN(Cc1ccccc1)Cc1ccccc1
inactive: [16] 100 % of control | [4] 101 % of control | [17] 105 % of control | [5] 102 % of control | [18] 109 % of control | [6] 95 % of control

O=C(COc1ccc(Cl)c(Cl)c1)Nc1ccc[n+](Cc2ccc(Cl)cc2S(=O)(=O)F)c1
inactive: [10] 97 % of control | [11] 94 % of control | [12] 101 % of control

Cc1ccc(S(=O)(=O)N(CCC#N)CCC#N)cc1
inactive: [1] 106 % of control | dose: 50.0 mg/kg/injection, schedule: Q01DX009 (ip), vehicle: Klucel (hydroxypropylcellulose) (HPC) 112 % of control | [16] 97 % of control and 101 % of control | [17] 92 % of control | [18] 96 % of control

O=C(COc1cc(Cl)c(Cl)cc1Cl)OC(=O)COc1cc(Cl)c(Cl)cc1Cl
inactive: [15] 107 % of control | dose: 200.0 mg/kg/injection, schedule: Q04DX002 (ip), vehicle: Klucel (hydroxypropylcellulose) (HPC) 96 % of control

Cc1ccc(NC(=O)OCCN(CCOC(=O)Nc2ccc(C)cc2)c2cccc(C)c2)cc1
inactive: [19] 94 % of control | [20] 90 % of control | [21] 94 % of control

N#CCC1C(=O)Nc2ccccc21 (stereo not given)
inactive: [19] 101 % of control | [20] 98 % of control | [21] 101 % of control

CC(=O)C1(O)CCC2C3CC(C)C4=CC(=O)C=CC4(C)C3C(O)CC21C (stereo not given)
inactive: dose: 12.5 mg/kg/injection, schedule: Q04DX002 (ip), vehicle: Klucel (hydroxypropylcellulose) (HPC) 97 % of control | [13] 97 % of control | [14] 90 % of control

Cn1c(=O)oc2ccccc2c1=O
inactive: [7] 98 % of control | [8] 97 % of control | [9] 109 % of control

O=C(NC1CCCCC1)c1ccc([N+](=O)[O-])cc1
inactive: [22] 104 % of control | [23] 101 % of control | [24] 101 % of control

CC(=O)N[C@H]1CC[C@H]2[C@@H]3CCC4=CC(=O)CC[C@]4(C)[C@H]3CC[C@]12C
inactive: [10] 86 % of control | [11] 92 % of control | [12] 86 % of control

CCCN
inactive: [19] 107 % of control | [2] 106 % of control and 107 % of control | dose: 100.0 mg/kg/injection, schedule: Q04DX002 (ip), vehicle: saline 103 % of control and 108 % of control | [7] 103 % of control | [20] 100 % of control | [3] 93 % of control and 109 % of control | dose: 200.0 mg/kg/injection, schedule: Q04DX002 (ip), vehicle: saline 99 % of control and 106 % of control | [8] 96 % of control | [21] 105 % of control | dose: 400.0 mg/kg/injection, schedule: Q01DX009 (ip), vehicle: saline 111 % of control and 117 % of control | dose: 400.0 mg/kg/injection, schedule: Q04DX002 (ip), vehicle: saline 105 % of control and 108 % of control | [9] 96 % of control

CCN(CC)CC#N
inactive: dose: 1.0 mg/kg/injection, schedule: Q01DX009 (ip), vehicle: saline 97 % of control | dose: 2.0 mg/kg/injection, schedule: Q01DX009 (ip), vehicle: saline 99 % of control | dose: 4.0 mg/kg/injection, schedule: Q01DX009 (ip), vehicle: saline 95 % of control | dose: 8.0 mg/kg/injection, schedule: Q01DX009 (ip), vehicle: saline 100 % of control

Cc1ccc(Nc2ccc(Nc3ccc(C)cc3)c3c2C(=O)c2ccccc2C3=O)cc1
inactive: [10] 86 % of control | [11] 87 % of control | [12] 92 % of control

O=C1CC2CC(=O)CC2C1 (stereo not given)
inactive: [22] 104 % of control | [7] 105 % of control | [23] 97 % of control | [3] 90 % of control | [8] 105 % of control | [24] 98 % of control | [9] 94 % of control

O=[N+]([O-])c1ccc(/C=C2\c3ccccc3-c3nc4ccccc4nc32)cc1
inactive: dose: 75.0 mg/kg/injection, schedule: Q01DX001 (ip), vehicle: saline 92 % of control | dose: 300.0 mg/kg/injection, schedule: Q01DX001 (ip), vehicle: saline 91 % of control

O=C(O)C1CC(c2ccccc2)=NN1c1ccccc1 (stereo not given)
inactive: [22] 104 % of control | [23] 90 % of control | [24] 93 % of control

CC(C)(CNCc1ccco1)[N+](=O)[O-]
inactive: dose: 50.0 mg/kg/injection, schedule: Q01DX009 (ip), vehicle: other 103 % of control | dose: 100.0 mg/kg/injection, schedule: Q01DX009 (ip), vehicle: other 95 % of control | dose: 200.0 mg/kg/injection, schedule: Q01DX009 (ip), vehicle: other 106 % of control
